Data set [1] concerns Spodoptera litura. Kind of data set: Insecticidal activity against third-instar larvae of Spodoptera litura in compound treated sweet potato leaves assessed as mortality at 8 to 31 ppm at 25 degC, 65% RH measured after 5 days by leaf dipping method. It is filed as functional.
The test system of data set [2] is Mythimna separata. Kind of data set: Insecticidal activity against third-instar larvae Mythimna separata (Oriental armyworm) in compound treated maize leaves assessed as mortality at 0.1 ppm at 25 degC, 65% RH measured after 5 days by leaf dipping method. To be noted: foliar, 120 h. It is filed as functional.
Data set [3] has as its system Spodoptera litura. Kind of data set: Ovicidal activity against […] Spodoptera litura in paraffin paper assessed as egg mortality at 31 to 125 ppm at 25 degC, 65% RH measured after 7 days by egg dipping method. It is filed as functional.
For data set [4], the system named is Spodoptera litura. Kind of data set: Insecticidal activity against third-instar larvae of Spodoptera litura in compound treated sweet potato leaves assessed as mortality at 31 ppm at 25 degC, 65% RH measured after 5 days by leaf dipping method. To be noted: foliar, 120 h. It is filed as functional.
Data set [5] deals with Spodoptera litura. Kind of data set: Ovicidal activity against […] Spodoptera litura in paraffin paper assessed as egg mortality at 8 to 16 ppm at 25 degC, 65% RH measured after 7 days by egg dipping method. It is filed as functional.
Data set [6] concerns Mythimna separata. Kind of data set: Insecticidal activity against third-instar larvae Mythimna separata (Oriental armyworm) in compound treated maize leaves assessed as mortality at 2 to 4 ppm at 25 degC, 65% RH measured after 5 days by leaf dipping method. In kind it is functional.
Data set [7] deals with Spodoptera litura. Kind of data set: Ovicidal activity against […] Spodoptera litura in paraffin paper assessed as egg mortality at 125 ppm at 25 degC, 65% RH measured after 7 days by egg dipping method. To be noted: 168 h. It is filed as functional.
In data set [8] the test system is Mythimna separata. Kind of data set: Insecticidal activity against third-instar larvae Mythimna separata (Oriental armyworm) in compound treated maize leaves assessed as mortality at 8 to 31 ppm at 25 degC, 65% RH measured after 5 days by leaf dipping method. In kind it is functional.
The test system of data set [9] is Spodoptera litura. In words: Ovicidal activity against […] Spodoptera litura in paraffin paper assessed as egg mortality at 1 to 4 ppm at 25 degC, 65% RH measured after 7 days by egg dipping method. In kind it is functional.
Data set [10] concerns Spodoptera litura. Kind of data set: Insecticidal activity against third-instar larvae of Spodoptera litura in compound treated sweet potato leaves assessed as mortality at 2 to 4 ppm at 25 degC, 65% RH measured after 5 days by leaf dipping method. In kind it is functional.
For data set [11], the system named is Spodoptera litura. Kind of data set: Insecticidal activity against third-instar larvae of Spodoptera litura in compound treated sweet potato leaves assessed as mortality at 0.1 ppm at 25 degC, 65% RH measured after 5 days by leaf dipping method. It is filed as functional. To be noted: foliar, 120 h.
Data set [12] has as its system Spodoptera litura. In words: Ovicidal activity against […] Spodoptera litura in paraffin paper assessed as egg mortality at 0.5 ppm at 25 degC, 65% RH measured after 7 days by egg dipping method. In kind it is functional. To be noted: 168 h.
Data set [13] can be described thus: Metabolic stability in Spodoptera litura larvae feaces. It is filed as ADME, organism-based. To be noted: faeces, read-out: Drug recovery.
The subject of data set [14] is Mythimna separata. Kind of data set: Insecticidal activity against third-instar larvae Mythimna separata (Oriental armyworm) in compound treated maize leaves assessed as mortality at 0.25 to 1 ppm at 25 degC, 65% RH measured after 5 days by leaf dipping method. It is filed as functional.
The nature of data set [15]: Stability of the compound under natural condition at 25 degC for 24 hr. In kind it is physicochemical.
In data set [16] the test system is Spodoptera litura. In words: Metabolic stability in homogenized Spodoptera litura larvae. It is filed as ADME, organism-based. To be noted: in vivo.
The test system of data set [17] is Mythimna separata. Kind of data set: Insecticidal activity against third-instar larvae Mythimna separata (Oriental armyworm) in compound treated maize leaves assessed as mortality at 31 ppm at 25 degC, 65% RH measured after 5 days by leaf dipping method. It is filed as functional. To be noted: foliar, 120 h.

We go through 22 compounds from ChEMBL document CHEMBL3046397, “Synthesis and Insecticidal Activity of 4-1, 2, 4-Thiadiazolin-3-ones” (J Pestic Sci, 1994).

Consider `Cc1cc(OC(F)(F)F)ccc1-n1sc(-c2c(F)cccc2F)nc1=O`, for which the mortality with Spodoptera litura [1] and with Spodoptera litura [3] was greater than 90% throughout. Further, the mortality at 0.1 ppm with Mythimna separata [2] is greater than 90%.

For the compound `O=c1nc(-c2c(F)cccc2F)on1-c1ccc(OC(F)(F)F)cc1`, the mortality at 31 ppm in the data set on Spodoptera litura [4] is less than 90%. Further, the mortality with Spodoptera litura [5] and in the data set with Mythimna separata [6] was greater than 90% in each case.

As to `O=c1nc(-c2c(Cl)cccc2Cl)on1-c1ccc(Cl)cc1`, in the data set on Spodoptera litura [4], the mortality at 31 ppm is less than 90%. In the data set on Mythimna separata [6], the mortality is greater than 90%. The mortality at 125 ppm in the data set on Spodoptera litura [7] is less than 90%.

On to `O=c1nc(-c2c(F)cccc2F)sn1-c1ccc(OC(F)(F)F)cc1Cl`, for which the mortality with Mythimna separata [8], with Spodoptera litura [9] and in the data set with Spodoptera litura [10] was greater than 90% throughout.

With `O=c1nc(-c2c(F)cccc2F)sn1-c1ccc(OC(F)(F)F)c(F)c1Cl`, the mortality at 0.1 ppm in the data set on Mythimna separata [2] and in the data set with Spodoptera litura [11] was greater than 90% in each case. For the same compound, in the data set with Spodoptera litura [3], the mortality is greater than 90%.

Take `O=C(NC(=O)c1c(F)cccc1F)Nc1cc(F)c(OC(F)(F)F)cc1F`: the mortality at 0.1 ppm in the data set with Mythimna separata [2] and with Spodoptera litura [11] was greater than 90% each time. In addition, the mortality at 0.5 ppm with Spodoptera litura [12] was greater than 90%.

For the compound `O=c1nc(-c2ccccc2Cl)sn1-c1ccc(OC(F)(F)F)cc1`, in data set [13], the dose excreted turned out to be 3.5%. In addition, the mortality in the data set with Spodoptera litura [1], in the data set on Mythimna separata [14] and in the data set on Spodoptera litura [9] was greater than 90% in each case. Besides, in data set [15], the Stability entry is “Stable”. This compound showed a Drug recovery with Spodoptera litura [16] of 10.4%.

As to `Cc1ccccc1-c1nc(=O)n(-c2ccc(OC(F)(F)F)cc2)s1`, in the data set with Spodoptera litura [4], the mortality at 31 ppm is less than 90%. The mortality in the data set with Spodoptera litura [5] and in the data set on Mythimna separata [6] was greater than 90% in each case.

Turning to `O=c1nc(-c2c(F)cccc2F)sn1-c1cc(Cl)c(F)c(Cl)c1F`, the mortality at 31 ppm in the data set with Spodoptera litura [4] and in the data set on Mythimna separata [17] was less than 90% each time. Further, the mortality in the data set with Spodoptera litura [5] is reported as greater than 90%.

As to `O=C(NC(=O)c1c(F)cccc1F)Nc1ccc(Cl)cc1` [DIFLUBENZURON], the mortality at 31 ppm in the data set with Spodoptera litura [4] was less than 90%. Further, in the data set with Mythimna separata [2], the mortality at 0.1 ppm is greater than 90%. Moreover, the mortality in the data set with Spodoptera litura [9] is listed as greater than 90%.

As for `O=c1nc(-c2c(Cl)cccc2Cl)sn1-c1ccc(Cl)cc1`, in the data set on Mythimna separata [8], the mortality was greater than 90%. The mortality at 31 ppm in the data set with Spodoptera litura [4] is less than 90%. Also, in the data set with Spodoptera litura [7], the mortality at 125 ppm is less than 90%.

For `O=c1nc(-c2c(F)cccc2F)sn1-c1cc(Cl)c(OC(F)(F)F)cc1F`, the mortality at 0.1 ppm in the data set with Mythimna separata [2] is greater than 90%. Also, the mortality with Spodoptera litura [9] and in the data set on Spodoptera litura [10] was greater than 90% in each case.

Take `O=c1nc(-c2ccccc2Br)sn1-c1ccc(OC(F)(F)F)cc1`: the mortality with Mythimna separata [8], in the data set with Spodoptera litura [1] and with Spodoptera litura [5] was greater than 90% in each case.

In the case of `Cc1ccccc1-c1nc(=O)n(-c2ccc(OC(F)(F)F)cc2)o1`, the mortality in the data set with Mythimna separata [8] and in the data set on Spodoptera litura [5] was greater than 90% throughout. The mortality at 31 ppm in the data set with Spodoptera litura [4] is less than 90%.

As to `O=c1nc(-c2ccccc2F)sn1-c1ccc(OC(F)(F)F)cc1`, the mortality in the data set with Spodoptera litura [1], with Spodoptera litura [5] and in the data set on Mythimna separata [6] was greater than 90% throughout.

With `O=c1nc(-c2c(F)cccc2F)sn1-c1ccc(OC(F)(F)F)c(Cl)c1`, the mortality at 31 ppm in the data set with Spodoptera litura [4] was less than 90%. For the same compound, the mortality at 0.1 ppm in the data set with Mythimna separata [2] was greater than 90%. In addition, the mortality in the data set on Spodoptera litura [3] is given as greater than 90%.

As to `O=C(NC(=O)c1c(F)cccc1F)Nc1ccc(OC(F)(F)F)c(F)c1F`, the mortality at 0.1 ppm in the data set with Mythimna separata [2] and in the data set with Spodoptera litura [11] was greater than 90% throughout. Moreover, the mortality at 0.5 ppm in the data set with Spodoptera litura [12] was greater than 90%.

As to `O=c1nc(-c2ccccc2Cl)sn1-c1ccc(Cl)cc1`, in the data set on Mythimna separata [17], the mortality at 31 ppm is less than 90%. Further, the mortality at 125 ppm in the data set with Spodoptera litura [7] is less than 90%.

For `Cc1cc(-n2sc(-c3c(F)cccc3F)nc2=O)ccc1OC(F)(F)F`, the mortality at 0.1 ppm with Mythimna separata [2] is greater than 90%. Moreover, the mortality in the data set on Spodoptera litura [3] and with Spodoptera litura [10] was greater than 90% each time.

As to `O=C(NC(=O)c1ccccc1Cl)Nc1ccc(OC(F)(F)F)cc1` [TRIFLUMURON], the mortality with Spodoptera litura [1] is reported as greater than 90%. The mortality at 0.1 ppm with Mythimna separata [2] is greater than 90%. Besides, the mortality at 0.5 ppm with Spodoptera litura [12] was greater than 90%.

As for `O=c1nc(-c2c(Cl)cccc2Cl)sn1-c1ccc(OC(F)(F)F)cc1`, the mortality at 31 ppm in the data set on Spodoptera litura [4] is less than 90%. Moreover, the mortality with Mythimna separata [6] is reported as greater than 90%. For the same compound, the mortality at 125 ppm with Spodoptera litura [7] is less than 90%.

Take `O=c1nc(-c2ccccc2C(F)(F)F)sn1-c1ccc(OC(F)(F)F)cc1`: the mortality at 31 ppm in the data set with Spodoptera litura [4] and with Mythimna separata [17] was less than 90% throughout. In addition, the mortality at 125 ppm in the data set on Spodoptera litura [7] is less than 90%.

The mortality is the share of the test organisms that died.
